Among the data in patent US8183383B2, “Protein tyrosine phosphatase 1B inhibitor, preparation methods and uses thereof” (Shanghai Institute of Materia Medica, Chinese Academy of …, priority 2007, dated 2012) are IC50 values, retold here.

In the experiment the target is T1, hPTP1B (Homo sapiens, UniProt P18031).
T1 construct: The catalytic structural domain of hPTP1B was expressed in E-coli system by a molecular biology protocol; made in house; host or cells: E. coli
T1 sequence (P18031 3-277 limits assumed): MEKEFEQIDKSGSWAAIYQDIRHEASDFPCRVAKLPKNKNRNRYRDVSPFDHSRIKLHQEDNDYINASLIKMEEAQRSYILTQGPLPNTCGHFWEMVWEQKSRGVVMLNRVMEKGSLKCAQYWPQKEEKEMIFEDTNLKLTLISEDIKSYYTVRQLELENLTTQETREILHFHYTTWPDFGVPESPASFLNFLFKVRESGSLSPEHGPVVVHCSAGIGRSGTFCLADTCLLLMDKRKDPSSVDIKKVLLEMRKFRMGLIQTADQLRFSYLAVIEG
The experiment in a line: PTP1B inhibition test (pNPP hydrolysis, absorption at 410 nm). Format: biochemical. The note with it: recombinant hPTP1B catalytic domain 40 nM, 2 mM pNPP, pH 7.0, 2% DMSO; read-out: IC50(μM), inhibitory activity of the test compounds against PTP1B. The text has this:
1) Test principle: The catalytic structural domain of hPTP1B was expressed in E-coli system by a molecular biology protocol. The purified hPTP1B recombinant protein can hydrolyze the phosphoester linkage of the pNPP substrate to obtain a product which has a strong light absorption at 410 nm. Therefore, the variation of the enzyme activity and the inhibitory activity of a compound against the enzyme can be observed by directly monitoring the changes in the light absorption at 410 nm. A typical activity assay system is as follows: 50 mM Mops, PH 7.0, 1 mM EDTA, 2 mM DTT, 2 mM PNPP, 2% DMSO, 40 nM hPTP1B.
2) Measuring Index: The light absorption was dynamically measured at 410 nm for 3 min. The slope of the first-order reaction of the dynamic curve thereof was considered as the activity index of the enzymes.
3) Measurement: • 1. 1 mg sample was dissolved in 200 μL DMSO. To each wall of the A2-H11 of a 96-wells polypropylene plate, 20 μL of the solution was added, followed by addition of 80 μL DMSO. The plate was used as mother plate. • 2. To each corresponding wall of a 96-wells polypropylene plate, 2 μL of sample was added with a Biomek 2000 automation workstation. The plate was used as daughter plate for screening. • 3. To each wall of A1-D1 and E12-H12, 2 μL, DMSO was added. These walls were regarded as 100% of enzyme activity for control. • 4. To each wall of A12-D12 and E1-H1, 2 μL positive control with different concentrations (four concentrations prepared by double-fold dilution from […]) was added respectively. • 5. To each wall of A1-H12, 88 μL Assay mix was added respectively. • 6. To each wall of A1-H12, 10 μL hPTP1B was added respectively. • 7. The light absorption was measured at 410 nm for 3 min on a SpectraMAX 340 spectrometer. • 8. Exporting the output into a TXT file, and opening the file with Excel. The average of the Vmax values of A1-D1 and E12-H12 was considered as 100% of enzyme activity.
4) Results: The screening results were the % inhibitory rate against the enzyme when the compound concentration was 20 μg/mL. 1050 value was calculated according to a conventional screening when the inhibitory rate exceeded 50%. The […] value of the positive control, 4-[4-(4-oxalyl-phenoxymethyl)-benzyloxy]-phenyl-oxo-acetic acid, is 5.4 μM [Christopher T. Seto, et al. J. Med. Chem., 2002, 45, 3946-3952].
By IC50 is commonly meant the concentration that inhibits the measured activity by half. Turning to `CCOC(=O)/C(C)=C\C(C)=C\c1csc([C@H](Cc2ccc(OCc3ccccc3)cc2)NC(=O)C(=O)c2ccc(F)cc2)n1` [WY612], the IC50 was determined as 5.13 µM. With `CCOC(=O)/C(C)=C/C(C)=C/c1csc([C@H](Cc2ccc(OCc3ccccc3)cc2)NC(=O)C2CCCCC2)n1` [WY572-2], the IC50 was determined as 6.38 µM. Next, `CCOC(=O)/C(C)=C\C(C)=C\c1csc([C@H](Cc2ccc(OCc3ccccc3)cc2)NC(=O)c2ccco2)n1` [WY556s]: above 40 µM; `CCOC(=O)/C(C)=C\C(C)=C\c1csc([C@H](Cc2ccc(OCc3ccccc3)cc2)NC(=O)c2cc3ccccc3s2)n1` [WY622s]: 25.6 µM; `CCOC(=O)/C(C)=C\C(C)=C\c1csc([C@H](Cc2ccc(OCc3ccccc3)cc2)NC(=O)c2ccccc2)n1` [WY566s]: 15.2 µM. In the case of `CCOC(=O)/C(C)=C\C(C)=C\c1csc([C@H](Cc2ccc(OCc3ccc(OC)cc3)cc2)NC(=O)C2CCCCC2)n1` [WY602h], the half-maximal inhibitory concentration (IC50) was 25.6 µM. As for `CCOC(=O)/C(C)=C\C(C)=C\c1csc([C@H](Cc2ccc(OCc3ccccc3)cc2)NC(=O)C(=O)C2CC2)n1` [WY558], the IC50 was 8.14 µM. Under `CCOC(=O)/C(C)=C\C(C)=C\c1csc([C@H](Cc2ccc(OCc3ccccc3)cc2)NC(=O)c2ccc(F)cc2)n1` [WY584s] stands above 35 µM; under `CCOC(=O)/C(C)=C\C(C)=C\c1csc([C@H](Cc2ccc(OCc3ccccc3)cc2)NC(=O)C(=O)C2CCCO2)n1` (some centres unmarked) [WY588], 10.4 µM.

`CCOC(=O)COc1ccc(C[C@H](NC(=O)C2CCCCC2)c2nc(/C=C(C)/C=C(/C)C(=O)OCC)cs2)cc1` [WY568h]: the IC50 is above 40 µM.

With `CCOC(=O)/C(C)=C\C(C)=C\c1csc([C@H](Cc2ccc(OCc3ccsc3)cc2)NC(=O)C2CCCCC2)n1` [WY578h], the IC50 came out at 12 µM. Turning to `CCOC(=O)/C(C)=C\C(C)=C\c1csc([C@H](Cc2ccc(OCc3ccccc3)cc2)NC(=O)C(=O)c2ccc[nH]2)n1` [WY583], the IC50 was above 35 µM. On to `CCOC(=O)/C(C)=C\C(C)=C\c1csc([C@H](Cc2ccc(OCc3ccccc3)cc2)NC(=O)C2CCCO2)n1` (some centres unmarked) [WY560s], for which the IC50 is above 40 µM. Turning to `CCOC(=O)/C(C)=C\C(C)=C\c1csc([C@H](Cc2ccc(OCc3ccncc3)cc2)NC(=O)C2CCCCC2)n1` [WY573h4], the IC50 is above 40 µM. For `CCOC(=O)/C(C)=C\C(C)=C\c1csc([C@H](Cc2ccc(OCc3ccccc3)cc2)NC(=O)C(=O)COCc2ccccc2)n1` [WY638], the IC50 is 4.1 µM.

As to `CCOC(=O)/C(C)=C/C(C)=C\c1csc([C@H](Cc2ccc(OCc3ccccc3)cc2)NC(=O)C2CCCCC2)n1` [WY572-3], the IC50 came out at 8.69 µM. Take `CCOC(=O)/C(C)=C\C(C)=C\c1csc([C@H](Cc2ccc(OCc3ccc4ccccc4c3)cc2)NC(=O)C2CCCCC2)n1` [WY622h]: the 50% inhibitory concentration (IC50) is above 35 µM.

For `CCOC(=O)/C(C)=C\C(C)=C\c1csc([C@H](Cc2ccc(OCc3ccccc3)cc2)NC(=O)C2CCCCC2=O)n1` (some centres unmarked) [WY586d], the half-maximal inhibitory concentration (IC50) came to 8.44 µM.

Take `CCOC(=O)/C(C)=C\C(C)=C\c1csc([C@H](Cc2ccc(OC)cc2)NC(=O)C2CCCCC2)n1` [WY496h]: the IC50 amounted to 30.1 µM. Take `CCCCC(=O)C(=O)N[C@@H](Cc1ccc(OCc2ccccc2)cc1)c1nc(/C=C(C)/C=C(/C)C(=O)OCC)cs1` [WY574]: the IC50 came to 8.58 µM.

For `CCOC(=O)/C(C)=C\C(C)=C\c1csc([C@H](Cc2ccc(OCc3ccccc3)cc2)NC(=O)C(=O)c2cccs2)n1` [WY600t], the IC50 amounted to 10.9 µM.

As for `CCOC(=O)/C(C)=C\C(C)=C\c1csc([C@H](Cc2ccc(OCc3ccccc3)cc2)NC(=O)COC(C)=O)n1` [WY562s], the IC50 is above 40 µM.

In the case of `CCOC(=O)/C(C)=C\C(C)=C\c1csc([C@H](Cc2ccc(OCc3ccccc3)cc2)NC(=O)C(=O)CO)n1` [WY548], the IC50 is above 35 µM.

In the case of `CCOC(=O)/C(C)=C\C(C)=C\c1csc([C@H](Cc2ccc(OCCc3ccccc3)cc2)NC(=O)C2CCCCC2)n1` [WY586h], the IC50 was above 35 µM. For the compound `CCOC(=O)/C(C)=C\C(C)=C\c1csc([C@H](Cc2ccc(OCc3ccccc3)cc2)NC(=O)C(=O)c2ccccc2)n1` [WY594], the IC50 was 6.92 µM. Next, `CCOC(=O)/C(C)=C\C(C)=C\c1nc([C@H](Cc2ccc(OCc3ccccc3)cc2)NC(=O)C2CCCCC2)sc1CC(C)C` [WY628z]: 6.68 µM; `CCOC(=O)/C(C)=C\C(C)=C\c1csc([C@H](Cc2ccc(OCc3ccccc3)cc2)NC(=O)C2CC2)n1` [WY530s]: above 35 µM. Under `CCOC(=O)/C(C)=C\C(C)=C\c1csc([C@H](Cc2ccc(OCc3ccccn3)cc2)NC(=O)C2CCCCC2)n1` [WY573h] stands above 35 µM; under `CCOC(=O)/C(C)=C\C(C)=C\c1csc([C@H](Cc2ccc(OCc3ccccc3)cc2)NC(=O)C2CCC2)n1` [WY544s], above 40 µM. As to `CCOC(=O)/C(C)=C\C(C)=C\c1csc([C@H](Cc2ccc(OCc3ccc(F)cc3)cc2)NC(=O)C2CCCCC2)n1` [WY590h], the IC50 stood at 25.6 µM. For the compound `CCOC(=O)/C(C)=C\C(C)=C\c1csc([C@H](Cc2ccc(OCc3ccccc3)cc2)NC(=O)C(O)C2CCCCC2)n1` (some centres unmarked) [WY602-2], the concentration for half-maximal inhibition (IC50) came out at 13.5 µM. As for `C/C(=C/C(C)=C/c1nc([C@H](Cc2ccc(OCc3ccccc3)cc2)NC(=O)CC2CCCCC2)sc1-c1ccccc1)C(=O)O` [WY634a], the IC50 is 3.97 µM.

For `CCOC(=O)/C(C)=C\C(C)=C\c1csc([C@H](Cc2ccc(OCc3ccccc3)cc2)NC(=O)C2CCN(C)CC2)n1` [WY587s], the IC50 is above 35 µM. In the case of `CCOC(=O)/C(C)=C\C(C)=C\c1nc([C@@H](Cc2ccc(OCc3ccccc3)cc2)NC(=O)C2CCCCC2)sc1CC(C)C` [WY628z2], the IC50 was 10.5 µM.

Turning to `CCOC(=O)/C(C)=C\C(C)=C\c1csc([C@H](Cc2ccc(Oc3ccc([N+](=O)[O-])cc3F)cc2)NC(=O)C2CCCCC2)n1` [WY621h], the IC50 was above 35 µM. Take `CCOC(=O)/C(C)=C\C(C)=C\c1csc([C@H](Cc2ccc(OCc3ccccc3)cc2)NC(=O)C2CCCCC2)n1` [WY572s]: the IC50 worked out at 6.29 µM.

As for `C=CCc1cc(C[C@H](NC(=O)C2CCCCC2)c2nc(/C=C(C)/C=C(/C)C(=O)OCC)cs2)ccc1O` [WY522b], the IC50 is above 40 µM. As for `CCOC(=O)/C(C)=C\C(C)=C\c1csc([C@H](Cc2ccc(OCc3ccccc3)cc2)NC(=O)N2CCC(C(=O)OCC)CC2)n1` [WY645s], the IC50 is 10.5 µM.

For `CCOC(=O)/C(C)=C\C(C)=C\c1csc([C@H](Cc2ccc(OCc3ccccc3)cc2)NC(=O)C(=O)COC)n1` [WY562], the IC50 came out at 10.2 µM. Under `CCOC(=O)/C(C)=C\C(C)=C\c1csc([C@H](Cc2ccc(OC(C)C(=O)OCC)cc2)NC(=O)C2CCCCC2)n1` (some centres unmarked) [WY582h] stands above 35 µM; under `CCOC(=O)/C(C)=C\C(C)=C\c1csc([C@H](Cc2ccc(OCc3ccccc3)cc2)NC(=O)Cc2ccccc2)n1` [WY580s], 23.1 µM; under `CCOC(=O)/C(C)=C\C(C)=C\c1csc([C@H](Cc2ccc(O)c(Cc3ccccc3)c2)NC(=O)C2CCCCC2)n1` [WY572t], 4.47 µM. Under `CCCCOc1ccc(C[C@H](NC(=O)C2CCCCC2)c2nc(/C=C(C)/C=C(/C)C(=O)OCC)cs2)cc1` [WY538h] stands 22.1 µM; under `CCOC(=O)/C(C)=C\C(C)=C\c1csc([C@H](Cc2ccc(O)cc2)NC(=O)C2CCCCC2)n1` [WY482h], 27.8 µM; under `CCOC(=O)/C(C)=C\C(C)=C\c1csc([C@H](Cc2ccc(OCc3ccccc3)cc2)NC(=O)C(OCc2ccccc2)C(C)C)n1` (some centres unmarked) [WY652s], 9.98 µM. For the compound `CCOC(=O)/C(C)=C\C(C)=C\c1csc([C@H](Cc2ccc(OCc3ccccc3)cc2)NC(=O)c2ccc(OC)cc2)n1` [WY596s], the half-inhibitory concentration (IC50) is 44.8 µM. With `COC(=O)/C(C)=C\C(C)=C\c1csc([C@H](Cc2ccc(OCc3ccccc3)cc2)NC(=O)C(O)c2ccccc2)n1` (some centres unmarked) [WY584], the IC50 was above 35 µM.
